Laboratory results from paper PMC11873611 (Acta Pharmaceutica Sinica. B, 2024).
Numbering of substitutions follows the chain as printed.

Tests used:
PGAM5 [1] = molecular target: T1, PGAM5 (Mus musculus, UniProt Q8BX10); experiment: DARTS, CETSA and SIP target engagement in BMDMs; format: cell-based
T1 sequence (Q8BX10 1-288): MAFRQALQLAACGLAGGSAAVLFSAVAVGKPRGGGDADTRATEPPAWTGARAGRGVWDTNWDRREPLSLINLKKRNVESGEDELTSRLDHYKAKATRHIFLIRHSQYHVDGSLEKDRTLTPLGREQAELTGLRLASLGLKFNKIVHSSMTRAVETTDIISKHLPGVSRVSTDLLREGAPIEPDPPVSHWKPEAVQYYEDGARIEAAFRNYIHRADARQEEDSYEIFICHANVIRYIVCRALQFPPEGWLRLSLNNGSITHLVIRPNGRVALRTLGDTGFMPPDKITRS

PGAM5 [2] = molecular target: T2, PGAM5 (Homo sapiens, UniProt Q96HS1, C229A); experiment: in vitro PGAM5 phosphatase assay; format: biochemical
T2 sequence (Q96HS1 22-289 C229A): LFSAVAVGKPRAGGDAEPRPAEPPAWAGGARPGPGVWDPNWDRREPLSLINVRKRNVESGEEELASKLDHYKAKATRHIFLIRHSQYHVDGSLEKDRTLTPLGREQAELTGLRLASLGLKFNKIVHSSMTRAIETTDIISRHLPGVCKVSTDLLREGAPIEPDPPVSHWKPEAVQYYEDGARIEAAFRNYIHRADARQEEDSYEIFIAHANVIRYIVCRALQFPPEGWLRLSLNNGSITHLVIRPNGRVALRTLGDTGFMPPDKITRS

PGAM5 [3] = molecular target: T3, PGAM5 (Homo sapiens, UniProt Q96HS1); experiment: SPR; format: binding
T3 sequence (Q96HS1 22-289): T2 sequence (Q96HS1 22-289 C229A) with A208C

PGAM5 [4] = molecular target: T4, PGAM5 (Homo sapiens, UniProt Q96HS1, C168A); experiment: in vitro PGAM5 phosphatase assay; format: biochemical
T4 sequence (Q96HS1 22-289 C168A): T2 sequence (Q96HS1 22-289 C229A) with C147A, A208C

PGAM5 [5] = molecular target: T3, PGAM5; experiment: SPR; format: binding; remark: listed apart in the source

Compound | DARTS, CETSA and SIP target engagement in BMDMs (PGAM5 [1]) | in vitro PGAM5 phosphatase assay (phosphopeptide, BIOMOL Green) (PGAM5 [2]) | Kd (PGAM5 [3]) [nM] | in vitro PGAM5 phosphatase assay (phosphopeptide, BIOMOL Green) (PGAM5 [4]) | SPR (Fig. S9L and S9M) (PGAM5 [5])
O=C1O[C@H]2[C@@H]3OC(=O)c4cc(O)c(O)c(O)c4-c4c(O)c(O)c5oc(=O)c6c(c(O)c(O)c7oc(=O)c4c5c76)-c4c(cc(O)c(O)c4O)C(=O)OC[C@H]3OC(O)[C@@H]2OC(=O)c2cc(O)c(O)c(O)c2-c2c1cc(O)c(O)c2O (mixture of isomers) [punicalagin] | punicalagin significantly restrained the proteolysis of PGAM5 by pronase, further supporting that punicalagin could bind to PGAM5 in BMDMs | punicalagin still inhibited the phosphatase activity of PGAM5 C168A or C229A protein mutant | ~0.3 | punicalagin still inhibited the phosphatase activity of PGAM5 C168A or C229A protein mutant | 
O=C1OC[C@H]2OC(O)[C@H](O)[C@@H](O)[C@@H]2OC(=O)c2cc(O)c(O)c(O)c2-c2c(O)c(O)c3oc(=O)c4c(c(O)c(O)c5oc(=O)c2c3c54)-c2c1cc(O)c(O)c2O (mixture of isomers) [punicalin] |  |  |  |  | there was a similar direct interaction between punicalin and ΔN21 PGAM5 or ΔN90 PGAM5 compared with punicalagin
